What was measured:
[1] = 1-Octanol/aqueous buffer partition coefficient, logD of the compound at pH 7.4 by chromatographic method; type: physicochemical
[2] = Metabolic stability in mouse liver microsomes assessed as intrinsic clearance at 1 uM in the presence of NADPH regenerating system by LC/MS/MS analysis; type: ADME, Microsome; conditions: read-out: CLH
[3] = Drug concentration in ICR mouse plasma at 10 mg/kg, po measured after 60 mins by LC-MS/MS analysis; type: ADME, organism-based
[4] = Drug concentration in ICR mouse brain at 10 mg/kg, po measured after 60 mins by LC-MS/MS analysis; type: ADME, organism-based; conditions: read-out: Ct
[5] = Unbound drug concentration in ICR mouse plasma at 10 mg/kg, po measured after 60 mins by LC-MS/MS analysis; type: ADME, organism-based; conditions: in vivo, 1 h
[6] = Unbound drug concentration in ICR mouse brain at 10 mg/kg, po measured after 60 mins by LC-MS/MS analysis; type: ADME, organism-based; conditions: in vivo, 1 h
[7] = Unbound brain-to-plasma concentration ratio in ICR mouse at 10 mg/kg, po measured after 60 mins by LC-MS/MS analysis; type: ADME, organism-based; conditions: read-out: K(p,uu,brain)
[8] = Metabolic stability in human liver microsomes assessed as intrinsic clearance at 1 uM in the presence of NADPH regenerating system by LC/MS/MS analysis; type: ADME, Microsome; conditions: read-out: CLH

Row | chromatographic logD [1] | microsomal CLint at 1 µM [2] | concentration at 1 h [3] | concentration at 1 h [4] | Cp(f) [5] | Drug uptake(free) [6] | Kp uu at 1 h [7] | microsomal CLint at 1 µM [8] | SMILES
1 | 2.85 | 4 µL/min/mg | 1940 ng/mL | 1140 ng/g | 387 nM | 43 nM | 0.11 | – | Cc1cc2c(c(-c3ccccc3OCC(F)(F)F)n1)CN(c1ccc(C(C)(C)O)cc1)C2=O
2 | 2.9 | 52 µL/min/mg | 76 ng/mL | 17 ng/g | 17 nM | 0.7 nM | 0.04 | 33 µL/min/mg | CC(C)(O)c1ccc(N2Cc3c(cc(C4(C)COC4)nc3-c3ccccc3OCC(F)(F)F)C2=O)cc1
3 | 2.69 | 1 µL/min/mg | – | – | – | – | – | – | Cc1cc2c(c(-c3ccccc3OCC(F)F)n1)CN(c1ccc(C(C)(C)O)cc1)C2=O
4 | 2.37 | 12 µL/min/mg | – | – | – | – | – | 40 µL/min/mg | CC(C)(O)c1ccc(N2Cc3c(ccnc3-c3ccccc3OCC(F)(F)F)C2=O)cc1
5 | 2.98 | 5 µL/min/mg | – | – | – | – | – | 1 µL/min/mg | CC(C)(O)c1ccc(N2Cc3c(cc(C4CCOCC4)nc3-c3ccccc3OCC(F)F)C2=O)cc1
6 | 2.77 | – | – | – | – | – | – | 3 µL/min/mg | CC(C)(O)c1ccc(N2Cc3c(cc(C(C)(C)O)nc3-c3ccccc3OCC(F)F)C2=O)cc1
7 | 4.63 | 56 µL/min/mg | – | – | – | – | – | 33 µL/min/mg | CC(C)(O)c1ccc(N2Cc3c(cc(C4CCCCC4)nc3-c3ccccc3OCC(F)F)C2=O)cc1
8 | 1.85 | – | – | – | – | – | – | – | CN(C)C(=O)c1cc2c(c(-c3ccccc3OCC(F)F)n1)CN(c1ccc(C(C)(C)O)cc1)C2=O
9 | 3.69 | 1 µL/min/mg | – | – | – | – | – | – | CC(C)(O)c1ccc(N2Cc3c(cc(C(C)(C)F)nc3-c3ccccc3OCC(F)F)C2=O)cc1
10 | 2.76 | 32 µL/min/mg | 284 ng/mL | 65 ng/g | 124 nM | 3.9 nM | 0.03 | 16 µL/min/mg | CC(C)(O)c1ccc(N2Cc3c(cc(C4(C)COC4)nc3-c3ccccc3OCC(F)F)C2=O)cc1
11 | 2.86 | – | – | – | – | – | – | – | CC(C)(O)c1ccc(N2Cc3c(cc(C(F)F)nc3-c3ccccc3OCC(F)F)C2=O)cc1
12 | 2.2 | 27 µL/min/mg | – | – | – | – | – | 17 µL/min/mg | CC(C)(O)c1ccc(N2Cc3c(ccnc3-c3ccccc3OCC(F)F)C2=O)cc1
13 | 3.19 | 46 µL/min/mg | – | – | – | – | – | 61 µL/min/mg | CC(C)(O)c1ccc(N2Cc3c(cc(C4CCCOC4)nc3-c3ccccc3OCC(F)F)C2=O)cc1 (racemic)
